“Also recorded” adds a separate entry of the source. Where no end group is shown, it is not given here. [ ]: non-standard residue; d: D form.
What was measured:
8226 MM = assay: SCID-Hu in vivo model, tumor burden by circulating lambda levels; parameters: species or system SCID mice
Protocol: 8226 cells (50,000 cells per mice) were engrafted into implanted human bone for 28 days. Following tumor engraftment, mice were treated with either 2 mg/Kg HYD1 or HYD1S (I.P. daily). Appropriate mice were treated with 1.5 mg/kg melphalan (mel) on day 29 and day […] (I.P. injections). Tumor burden was measured by lambda levels on day 28 and day 35 (n=3 mice per group).
Tumor burden was measured by circulating lambda levels. On day 28 (before drug treatment) measurements were recorded for each individual mouse and subsequent values obtained weekly are represented as a ratio of day 28 (day X/day 28). N=4 mice per group. HYD1 was administered I.P. at 2 mg/kg daily for 14 days (starting day 28). Melphalan was administered I.P. at 1.5 mg/kg on day 29 and 32.
SCID-Hu model. […] At 28 days, baseline tumor burden was quantified in the sera using either a lambda (8226) or kappa (H929) ELISA kit per manufacture instructions (Bethyl, Montgomery, Tex.) and mice were randomized into treatment groups. […] Tumor burden was assessed weekly by measuring kappa or lambda levels in the sera.
The SCID-Hu model consists of implanting human fetal bone into the mammary mouse fat pad of SCID mice. […] Human paraprotein can be measured in the mouse sera and levels represent a good marker for evaluating tumor burden and response to chemotherapy. […]

8226 cells = assay: Detection of apoptosis, annexin V staining and FACS, suspension culture; assay type: cell-based
Protocol: FIG. 17 is a graph showing that HYD1 induces apoptosis as a single agent in 8226 and H929 cells cultured in suspension. 8226 and H929 cells were either treated with varying concentrations of HYD1 or vehicle control (equal volume sterile double distilled water) for 24 hours and apoptotic cells were detected by FACS analysis of annexin V positive cells. HYD1 specific apoptosis equals cell death due to peptide minus any apoptosis detected in control cells.
Detection of Apoptosis. A flow cytometric assay measuring Annexin V/PI staining was used to measure apoptotic cells following 24 hours of peptide exposure as previously described (Damiano J S et al. Blood, 1999; 93:1658-1667). The assay was performed in triplicate and 3 independent experiments were performed. Caspase 3 and 8 activity was measured at 6 and 24 hrs post peptide treatment per manufactures' instructions (BD Biosciences, San Jose, Calif.). The caspase assays were performed in triplicate and repeated twice.
Myeloma cells were plated at a density of 400,000 cells per ml in a 24 well plate. Cells were treated with the indicated dose of the peptide for 24 hours. Following 24 hrs of peptide exposure, apoptotic cells were detected using Annexin V staining and FACS analysis. Ten thousand events were analyzed by flow cytometry (Becton Dickinson, San Jose, Calif.). Experiments were performed in triplicate and repeated twice. Shown is a representative figure.

“kikmviswkg ([dK][dI][dK][dM][dV][dI][dS][dW][dK]G) [HYD1]” was tested, and the “tumor burden (lambda levels), combination with melphalan” value (8226 MM; 8226, 2 mg/kg HYD1 I.P. daily with 1.5 mg/kg melphalan I.P.) was “greatest reduction in tumor burden; also recorded: enhances melphalan induced cell death”, the “tumor burden (circulating lambda levels, day X/day 28), single agent” value (8226 MM; 8226, 2 mg/kg I.P. daily for 14 days starting day 28) was “antitumor activity was detected; also recorded: reduces 8226 MM growth in vivo” and the “induction of annexin V positive cells” value (8226 cells; suspension culture, single agent, 24 hours) was “dose dependent induction of annexin V positive cells”. For the same substance, the “melphalan-induced apoptosis in cells cultured in suspension” value (8226 cells; suspension, peptide with melphalan) was “increased melphalan-induced apoptosis”.
